Source: patent US7186743B2, “Substituted pyrazolyl compounds for the treatment of inflammation” (Pharmacia Corporation, priority 2001, dated 2007)

Molecular target: T1, IKK2 (Homo sapiens, UniProt O14920)
T1 construct: made in house; host or cells: insect cells (baculovirus, pFastBac; SF9)
T1 sequence (O14920 1-756): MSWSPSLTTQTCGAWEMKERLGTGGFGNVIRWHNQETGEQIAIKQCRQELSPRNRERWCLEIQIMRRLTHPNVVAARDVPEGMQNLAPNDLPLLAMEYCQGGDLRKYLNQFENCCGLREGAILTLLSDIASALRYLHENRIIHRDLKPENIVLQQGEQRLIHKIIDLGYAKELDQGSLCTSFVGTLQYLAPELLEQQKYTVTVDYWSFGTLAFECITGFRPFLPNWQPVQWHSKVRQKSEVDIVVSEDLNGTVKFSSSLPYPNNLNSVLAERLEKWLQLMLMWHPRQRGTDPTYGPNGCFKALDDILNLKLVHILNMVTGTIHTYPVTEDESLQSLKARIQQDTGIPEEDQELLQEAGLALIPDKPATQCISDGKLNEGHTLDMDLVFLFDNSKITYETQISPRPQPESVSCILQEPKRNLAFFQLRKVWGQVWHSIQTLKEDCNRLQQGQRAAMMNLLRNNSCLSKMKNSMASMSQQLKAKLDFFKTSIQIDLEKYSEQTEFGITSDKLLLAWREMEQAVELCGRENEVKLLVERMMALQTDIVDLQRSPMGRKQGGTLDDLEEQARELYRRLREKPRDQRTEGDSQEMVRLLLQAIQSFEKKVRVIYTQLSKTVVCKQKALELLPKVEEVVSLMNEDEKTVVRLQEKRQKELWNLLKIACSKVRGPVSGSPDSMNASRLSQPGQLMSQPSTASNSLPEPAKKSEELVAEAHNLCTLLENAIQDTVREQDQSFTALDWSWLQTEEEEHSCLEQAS
Test: IKKβ Resin Enzyme Assay (IKK2 resin)
Type: biochemical
Conditions: Table 2; read-out: IKK Resin IC50
Description: cDNAs of human IKK1 and IKK2 were amplified by reverse transcriptase-polymerase chain reaction from human placental RNA (Clonetech). hIKK1 was subcloned into pFastBac HTa (Life Technologies) and expressed as N-terminal His6-tagged fusion protein. The hIKK2 cDNA was amplified using a reverse oligonucleotide primer which incorporated the peptide sequence for a FLAG-epitope tag at the C-terminus of the IKK2 coding region ([…]). The hIKK2:FLAG cDNA was subcloned into the baculovirus vector pFastBac. The rhIKK2 ([…]) mutant was constructed in the same vector used for wild type rhIKK2 using a QuikChange™ mutagenesis kit (Stratagene). Viral stocks of each construct were used to infect insect cells grown in 40 L suspension culture. […] Cell lysates were stored at −80° C. until purification of the recombinant proteins was undertaken as described below.
A 10-liter culture of baculovirus-expressing IKK2 tagged with FLAG peptide was centrifuged and the cell pellet (MOI=0.1 and I=72 hrs) was re-suspended in buffer A. These cells were microfluidized, and centrifuged at 100,000×g for 45 min. Supernatant was passed over a G-25 column equilibrated with Buffer A. Protein peak was collected and incubated with anti-FLAG affinity resin on a rotator overnight in buffer B. The resin was washed in batch with 10–15 bed volumes of buffer C. Washed resin was poured into a column and rhIKK2 homodimer was eluted using 5 bed volumes of buffer B containing FLAG peptide. 5 mM DTT, 0.1% NP-40 and BSA (concentrated to 0.1% in final amount) was added to the eluted enzyme before concentrating in using an Amicon membrane with a molecular weight cut-off of 30 kDa. Enzyme was aliquoted and stored at −80° C.
IKKβ kinase activity was measured using a biotinylated IκBα peptide ([…]32-Gly-Leu-Asp-Ser36-Met-Lys-Asp-Glu-Glu) (American Peptide Co.). […] ATP (Amersham) (about 1×10^5 cpm), 1 μM ATP (Sigma), 1 mM DTT (Sigma), 2 mM MgCl2 (Sigma), 2 mM MnCl2 (Sigma), 10 mM NaF (Sigma), 25 mM Hepes (Sigma) buffer, pH 7.6 and 20 μl enzyme solution and 10 ul inhibitor in a final volume of 50 μl. After incubation at 25° C. for 30 min, 150 μl resin (Dowex anion-exchange resin AG1X8 200–400 mesh) in 900 mM formate, pH 3.0 was added to each well to stop the reaction. Resin was allowed to settle for one hour and 50 ul of supernatant was removed to a Micolite-2 flat bottom plate (Dynex). 150 μl of scintillation fluid (Microscint 40) (Packard) was added to each well. Incorporation of [γ-^33P] ATP was measured using a Top-Count NXT (Packard).

Row | SMILES | IC50
1 | CS(=O)(=O)c1ccc(-n2nc(C(N)=O)c3c2-c2cc(NC(=O)c4ccc(N=[N+]=[N-])cc4)ccc2CC3)cc1 [Example 122, 8-[(4-azidobenzoyl)amino]-1-[4-(methylsulfonyl)phenyl]-4,5-dihydro-1H-benzo[g]indazole-3-carboxamide] | ≤ 1 µM
2 | CS(=O)(=O)c1ccc(-n2nc(C(N)=O)c3c2-c2cc(NC(=O)c4cc(Cl)cnc4Cl)ccc2CC3)cc1 [Example 123, 8-{[(2,5-dichloropyridin-3-yl)carbonyl]amino}-1-[4-(methylsulfonyl)phenyl]-4,5-dihydro-1H-benzo[g]indazole-3-carboxamide] | ≤ 1 µM
3 | CS(=O)(=O)c1ccc(-n2nc(C(N)=O)c3c2-c2cc(NC(=O)c4cc5c(cc4Cl)OCO5)ccc2CC3)cc1 [Example 125, 8-{[(6-chloro-1,3-benzodioxol-5-yl)carbonyl]amino}-1-[4-(methylsulfonyl)phenyl]-4,5-dihydro-1H-benzo[g]indazole-3-carboxamide] | ≤ 1 µM
4 | CN1CCN(c2ccc(Cl)c(C(=O)Nc3ccc4c(c3)-c3c(c(C(N)=O)nn3-c3ccc(S(C)(=O)=O)cc3)CC4)c2)CC1 [Example 126, 8-{[2-chloro-5-(4-methylpiperazin-1-yl)benzoyl]amino}-1-[4-(methylsulfonyl)phenyl]-4,5-dihydro-1H-benzo[g]indazole-3-carboxamide] | ≤ 1 µM

Same assay, conditions: Table 3; read-out: IKK Resin IC50

Row | SMILES | IC50
5 | COc1cc(Cl)c(C(=O)Nc2ccc3c(c2)-c2c(c(C(N)=O)nn2-c2ccc(S(C)(=O)=O)cc2)CC3)cc1OC [Example 131, 8-[(2-chloro-4,5-dimethoxybenzoyl)amino]-1-[4-(methylsulfonyl)phenyl]-4,5-dihydro-1H-benzo[g]indazole-3-carboxamide] | ≤ 1 µM
6 | CS(=O)(=O)c1ccc(-n2nc(C(N)=O)c3c2-c2cc(NC(=O)c4ccc(Cl)cc4[N+](=O)[O-])ccc2CC3)cc1 [Example 132, 8-[(4-chloro-2-nitrobenzoyl)amino]-1-[4-(methylsulfonyl)phenyl]-4,5-dihydro-1H-benzo[g]indazole-3-carboxamide] | ≤ 1 µM
7 | CS(=O)(=O)c1ccc(-n2nc(C(N)=O)c3c2-c2cc(NC(=O)c4c(F)cccc4Cl)ccc2CC3)cc1 [Example 134, 8-[(2-chloro-6-fluorobenzoyl)amino]-1-[4-(methylsulfonyl)phenyl]-4,5-dihydro-1H-benzo[g]indazole-3-carboxamide] | ≤ 1 µM
8 | CS(=O)(=O)c1ccc(-n2nc(C(N)=O)c3c2-c2cc(NC(=O)c4cccc([N+](=O)[O-])c4Cl)ccc2CC3)cc1 [Example 135, 8-[(2-chloro-3-nitrobenzoyl)amino]-1-[4-(methylsulfonyl)phenyl]-4,5-dihydro-1H-benzo[g]indazole-3-carboxamide] | ≤ 1 µM
9 | CS(=O)(=O)c1ccc(-n2nc(C(N)=O)c3c2-c2cc(NC(=O)c4cc(Br)ccc4Cl)ccc2CC3)cc1 [Example 136, 8-[(5-bromo-2-chlorobenzoyl)amino]-1-[4-(methylsulfonyl)phenyl]-4,5-dihydro-1H-benzo[g]indazole-3-carboxamide] | ≤ 1 µM
10 | CSc1ccc(Cl)c(C(=O)Nc2ccc3c(c2)-c2c(c(C(N)=O)nn2-c2ccc(S(C)(=O)=O)cc2)CC3)c1 [Example 137, 8-{[2-chloro-5-(methylthio)benzoyl]amino}-1-[4-(methylsulfonyl)phenyl]-4,5-dihydro-1H-benzo[g]indazole-3-carboxamide] | ≤ 1 µM
11 | Cc1ccc(C(=O)Nc2ccc3c(c2)-c2c(c(C(N)=O)nn2-c2ccc(S(C)(=O)=O)cc2)CC3)c(Cl)n1 [Example 138, 8-{[(2-chloro-6-methylpyridin-3-yl)carbonyl]amino}-1-[4-(methylsulfonyl)phenyl]-4,5-dihydro-1H-benzo[g]indazole-3-carboxamide] | ≤ 1 µM
12 | CS(=O)(=O)c1ccc(-n2nc(C(N)=O)c3c2-c2cc(NC(=O)c4cc(Cl)ccc4[N+](=O)[O-])ccc2CC3)cc1 [Example 139, 8-[(5-chloro-2-nitrobenzoyl)amino]-1-[4-(methylsulfonyl)phenyl]-4,5-dihydro-1H-benzo[g]indazole-3-carboxamide] | ≤ 1 µM
13 | CS(=O)(=O)c1ccc(-n2nc(C(N)=O)c3c2-c2cc(NC(=O)c4ccccc4)ccc2CC3)cc1 [Example 140, 8-(benzoylamino)-1-[4-(methylsulfonyl)phenyl]-4,5-dihydro-1H-benzo[g]indazole-3-carboxamide] | ≤ 1 µM
14 | COc1ccc(C(=O)Nc2ccc3c(c2)-c2c(c(C(N)=O)nn2-c2ccc(S(C)(=O)=O)cc2)CC3)cc1 [Example 143, 8-[(4-methoxybenzoyl)amino]-1-[4-(methylsulfonyl)phenyl]-4,5-dihydro-1H-benzo[g]indazole-3-carboxamide] | ≤ 1 µM
15 | CS(=O)(=O)c1ccc(-n2nc(C(N)=O)c3c2-c2cc(NC(=O)c4ccc(C#N)cc4)ccc2CC3)cc1 [Example 144, 8-[(4-cyanobenzoyl)amino]-1-[4-(methylsulfonyl)phenyl]-4,5-dihydro-1H-benzo[g]indazole-3-carboxaniide] | ≤ 1 µM
16 | CS(=O)(=O)c1ccc(-n2nc(C(N)=O)c3c2-c2cc(NC(=O)c4ccc([N+](=O)[O-])cc4Cl)ccc2CC3)cc1 [Example 146, 8-[(2-chloro-4-nitrobenzoyl)amino]-1-[4-(methylsulfonyl)phenyl]-4,5-dihydro-1H-benzo[g]indazole-3-carboxamide] | ≤ 1 µM
17 | COc1ccc([N+](=O)[O-])c(C(=O)Nc2ccc3c(c2)-c2c(c(C(N)=O)nn2-c2ccc(S(C)(=O)=O)cc2)CC3)c1 [Example 147, 8-[(5-methoxy-2-nitrobenzoyl)amino]-1-[4-(methylsulfonyl)phenyl]-4,5-dihydro-1H-benzo[g]indazole-3-carboxamide] | ≤ 1 µM
18 | CS(=O)(=O)c1ccc(-n2nc(C(N)=O)c3c2-c2cc(NC(=O)c4cc(SC#N)ccc4[N+](=O)[O-])ccc2CC3)cc1 [Example 148, 3-[({3-(aminocarbonyl)-1-[4-(methylsulfonyl)phenyl]-4,5-dihydro-1H-benzo[g]indazol-8-yl}amino)carbonyl]-4-nitrophenylthiocyanate] | ≤ 1 µM
19 | CS(=O)(=O)c1ccc(-n2nc(C(N)=O)c3c2-c2cc(NC(=O)c4cc(F)c(F)cc4[N+](=O)[O-])ccc2CC3)cc1 [Example 149, 8-[(4,5-difluoro-2-nitrobenzoyl)amino]-1-[4-(methylsulfonyl)phenyl]-4,5-dihydro-1H-benzo[g]indazole-3-carboxamide] | ≤ 1 µM
20 | COc1cc(C(=O)Nc2ccc3c(c2)-c2c(c(C(N)=O)nn2-c2ccc(S(C)(=O)=O)cc2)CC3)c([N+](=O)[O-])cc1OC [Example 150, 8-[(4,5-dimethoxy-2-nitrobenzoyl)amino]-1-[4-(methylsulfonyl)phenyl]-4,5-dihydro-1H-benzo[g]indazole-3-carboxamide] | ≤ 1 µM
21 | CS(=O)(=O)c1ccc(-n2nc(C(N)=O)c3c2-c2cc(NC(=O)c4cc(F)ccc4[N+](=O)[O-])ccc2CC3)cc1 [Example 151, 8-[(5-fluoro-2-nitrobenzoyl)amino]-1-[4-(methylsulfonyl)phenyl]-4,5-dihydro-1H-benzo[g]indazole-3-carboxamide] | ≤ 1 µM
